# Measurements: PubChem BioAssay AID608 (Sanford-Burnham Center for Chemical Genomics, 2007)
# Calls of active or inactive are those of the source. No rule for the calls is given here.
# Target: Peptidyl-prolyl cis-trans isomerase FKBP1A (Homo sapiens) (UniProt P62942)
# Test: FKBP12 binders, biophysical, NMR detection (AID 608)
# Conditions: NMR binding, purified FKBP12
# Chain of Peptidyl-prolyl cis-trans isomerase FKBP1A (Homo sapiens) (P62942 whole entry, looked up): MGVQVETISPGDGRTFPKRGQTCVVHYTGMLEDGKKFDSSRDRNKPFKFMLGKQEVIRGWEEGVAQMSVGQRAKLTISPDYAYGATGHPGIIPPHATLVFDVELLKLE
row,SMILES,Kd
1,CCCCCC(=O)Cc1cc(O)cc(O)c1C(=O)Oc1cc(CC(=O)CCCCC)c(C(=O)O)c(OC)c1,> 4 mM (inactive)
2,NC12CC3CC(C1)CC(CC(=O)O)(C3)C2,> 4 mM (inactive)
3,COc1cc(O)ccc1C(C)=O,> 4 mM (inactive)
4,NC(=O)CCn1cnc2ccccc21,> 4 mM (inactive)
5,CC(NC(=O)C1CCCCC1)C(=O)NC1=NCCS1 (stereo unspecified),> 4 mM (inactive)
6,Cc1cc(C)n(CCCC(=O)O)n1,> 4 mM (inactive)
7,Cc1csc2nc3ccccc3c(=O)n12,> 4 mM (inactive)
8,O=C1CC(c2ccccc2)n2ncnc2N1 (stereo unspecified),> 4 mM (inactive)
9,O=c1ccn([C@@H]2O[C@H](COP(=O)(O)OP(=O)(O)OP(=O)(O)O)[C@@H](O)[C@H]2O)c(=O)[nH]1,> 4 mM (inactive)
10,CN(C)c1nc(N)nc(-c2nc3ccccc3s2)n1,> 4 mM (inactive)
11,CC(C)(C)NC(=O)N1CCC(C(N)=O)CC1,> 4 mM (inactive)
12,NC1=NC(=O)/C(=C/c2cccc([N+](=O)[O-])c2)S1,> 4 mM (inactive)
13,Nc1nc2ccccc2n1CCN1CCCC1,> 4 mM (inactive)
14,Nc1cccnc1N1CCOCC1,> 4 mM (inactive)
15,CCC(=O)Nc1cc(C(C)C)c(O)cc1C,> 4 mM (inactive)
16,Cc1cc(=O)n2ncn(Cc3ccccc3)c2n1,> 4 mM (inactive)
17,O=C(CS(=O)(=O)c1ccccc1)N1CCCCCC1,> 4 mM (inactive)
18,COc1ccc2c(c1)OCC(Cc1ccc(OC)c(O)c1)C2=O (stereo unspecified),> 4 mM (inactive)
19,CC(=O)Nc1ccc(Oc2nc(C)cc(C)n2)cc1,> 4 mM (inactive)
20,COc1cc(OC)c2c(=O)c(O)c(-c3ccc(OC)c(OC)c3)oc2c1,> 4 mM (inactive)
21,CC(=O)Nc1c(C#N)c(C(C)(C)C)cn1C,> 4 mM (inactive)
22,CN1CCC(N2CCN(C)CC2)CC1,> 4 mM (inactive)
23,CC1(C)C(=O)C=C[C@@]2(C)C1=C(O)C(=O)[C@]1(C)C2CC[C@@]2(C)[C@H](c3ccoc3)C[C@H]3O[C@]321 (stereo partly specified),> 4 mM (inactive)
24,O=C(O)/C=C/C=C/c1ccccc1,> 4 mM (inactive)

row,SMILES,Kd
1,O=C(NC1=NCCS1)c1csc2ccccc12,> 4 mM (inactive)
2,COc1cc(OC)c2c(=O)c(OC)c(-c3ccc(OC)c(OC)c3)oc2c1,> 4 mM (inactive)
3,COC(=O)c1ccc(Cl)c(NC(C)=O)c1,> 4 mM (inactive)
4,Nc1ncnc2c1ncn2[C@@H]1O[C@H](CO)[C@@H](O)[C@H]1O,> 4 mM (inactive)
5,O=C(O)c1ccc(CSc2ncn[nH]2)cc1,> 4 mM (inactive)
6,CC(=O)O[C@H]1C[C@@H](OC(C)=O)C(C)(C)C2CC(=O)[C@]3(C)C(CC[C@@]4(C)[C@H](c5ccoc5)OC(=O)[C@H]5O[C@]543)[C@]21C (stereo partly specified),> 4 mM (inactive)
7,O=C(NCCO)c1ccccc1I,> 4 mM (inactive)
8,O=C(Nc1ccc(N2CCOCC2)cc1)C1CC1,> 4 mM (inactive)
9,COc1cc([C@H]2Oc3cc([C@H]4Oc5cc(O)cc(O)c5C(=O)[C@@H]4O)ccc3O[C@@H]2CO)ccc1O,> 4 mM (inactive)
10,Cc1ccc(N2NC(=O)CC2=O)cc1C,> 4 mM (inactive)
11,c1ccc(-c2nsc(N3CCNCC3)n2)cc1,> 4 mM (inactive)
12,Cc1nccc(-c2cccc(N)c2)n1,> 4 mM (inactive)
13,CSc1nc(O)cc(=O)[nH]1,> 4 mM (inactive)
14,NC(=O)Cn1nc2c3c(cccc3c1=O)-c1ccccc1-2,> 4 mM (inactive)
15,COCc1nc(-c2cc(Br)ccc2OC)no1,> 4 mM (inactive)
16,O=C(Nc1nc2ccccc2s1)c1ccc(=O)[nH]n1,> 4 mM (inactive)
17,O=C1C2=C(SCCS2)C(=O)N1CCCO,0.251 mM
18,c1csc(-c2nn[nH]n2)c1,> 4 mM (inactive)
19,Cc1cccc(CO)n1,> 4 mM (inactive)
20,CC(=O)OCC(=O)[C@@]1(O)CCC2C3CC[C@@H]4C[C@H](OC(C)=O)CC[C@]4(C)C3C(=O)C[C@@]21C (stereo partly specified),> 4 mM (inactive)
21,O=C(Nc1ccccc1C(F)(F)F)c1cnccn1,> 4 mM (inactive)
22,NC(=O)CSc1nc2ccccc2c(=O)[nH]1,> 4 mM (inactive)
23,Cc1c(-c2ccc(F)cc2)[n+](=O)c2c(n1[O-])CCC2,> 4 mM (inactive)
24,CCc1c(C(=O)Nc2ccncc2)csc1C,> 4 mM (inactive)

row,SMILES,Kd
1,CCN1CCC(NC2CCCCNC2=O)CC1 (stereo unspecified),> 4 mM (inactive)
2,CC(C)NC(=S)N1CCN(S(C)(=O)=O)CC1,> 4 mM (inactive)
3,Cc1oc(-c2ccccc2)cc1C(=O)O,> 4 mM (inactive)
4,CCn1ncc(Cl)c1C(=O)Nc1ccncc1,> 4 mM (inactive)
5,O=S1(=O)CCC(NC(=S)Nc2ccccn2)C1 (stereo unspecified),> 4 mM (inactive)
6,COC(=O)c1c(C)cc(OC)cc1O,> 4 mM (inactive)
7,Nc1cc(=O)[nH]c(SCC(=O)Nc2nccs2)n1,> 4 mM (inactive)
8,O=C(CCc1ccc(O)cc1)c1c(O)cc(O)cc1O,> 4 mM (inactive)
9,CC(=O)Nc1ccc(N(C)C(C)=O)cc1,> 4 mM (inactive)
10,NCCN=C1NS(=O)(=O)c2ccccc21,> 4 mM (inactive)
11,CC(=O)Nc1ccc2c(c1)C(=O)N(C1CCCCC1)C2=O,> 4 mM (inactive)
12,Cc1ccc(NS(=O)(=O)N2CCOCC2)c(C)c1,> 4 mM (inactive)
13,CCSc1nc(N)c(NC(=O)c2ccco2)c(=O)[nH]1,> 4 mM (inactive)
14,CC(=O)c1cccc(NC(=O)Nc2c(C)nn(C)c2C)c1,> 4 mM (inactive)
15,COCC(=O)Nc1cccc(Br)c1,> 4 mM (inactive)
16,NC(=O)CC[C@H](N)C(=O)O,> 4 mM (inactive)
17,NC(=O)C1(c2ccccc2)CCOCC1,> 4 mM (inactive)
18,OC(CCl)c1ccc(-n2cncn2)cc1 (stereo unspecified),> 4 mM (inactive)
19,O=C1NCC(=O)N2CCc3ccccc3C12 (stereo unspecified),> 4 mM (inactive)
20,O=C(Nc1ccncc1)Nc1ccc(F)cc1F,> 4 mM (inactive)
21,COc1ccc([C@@H](C)C(=O)c2ccc(O)cc2O)cc1,> 4 mM (inactive)
22,COc1c2ccoc2cc2oc(=O)ccc12,> 4 mM (inactive)
23,O=C(O)c1cnc2sc3ccccc3n2c1=O,> 4 mM (inactive)
24,CCOC(=O)c1c(-c2ccncc2)csc1N,> 4 mM (inactive)

row,SMILES,Kd
1,O=C(O)c1cccc(CSc2ncccn2)c1,> 4 mM (inactive)
2,COc1cc(/C=C2/NC(=S)NC2=O)cc(Cl)c1O,> 4 mM (inactive)
3,CP(C)(=O)c1cccc(C(=O)O)c1,> 4 mM (inactive)
4,Nc1ccc(N2CCCCC2)cc1,> 4 mM (inactive)
5,NS(=O)(=O)c1ccc(N=C2NC(=O)CS2)cc1,> 4 mM (inactive)
6,N/C(=N/S(=O)(=O)c1cccs1)c1ccccc1,> 4 mM (inactive)
7,CC(=O)c1cc(C(N)=O)c(=S)[nH]c1C,> 4 mM (inactive)
8,O=c1ccc2ccccc2o1,> 4 mM (inactive)
9,O=C(COc1ccccc1O)NCCO,> 4 mM (inactive)
10,Cc1occc1C(=O)Nc1nccs1,> 4 mM (inactive)
11,O=C(O)C1CC(=O)N(CCc2ccc(Cl)cc2)C1 (stereo unspecified),> 4 mM (inactive)
12,O=C(O)CSCc1ccc(Cl)cc1,> 4 mM (inactive)
13,O=C(CSc1ncccn1)NCc1ccco1,> 4 mM (inactive)
14,NCC(O)c1ccc(O)cc1 (stereo unspecified),> 4 mM (inactive)
15,O=c1[nH]cc(CN2CCOCC2)c(=O)[nH]1,> 4 mM (inactive)
16,Cc1cc(NC(=O)c2cc(C)on2)no1,> 4 mM (inactive)
17,O=C1CN2C(=N1)N(Cc1ccccc1)c1ccccc12,> 4 mM (inactive)
18,S=C(c1ccc2c(c1)OCO2)N1CCCC1,> 4 mM (inactive)
19,C=C[C@H]1CN2CC[C@H]1C[C@@H]2[C@@H](O)c1ccnc2ccc(OC)cc12,> 4 mM (inactive)
20,Cc1nnc(N2CCN(c3ccccc3)CC2)[nH]c1=O,> 4 mM (inactive)
21,CC1(C)CC[C@]2(C(=O)O)CC[C@]3(C)C(=CCC4[C@@]5(C)CC[C@@H](O)C(C)(C)C5CC[C@]43C)C2C1 (stereo partly specified),> 4 mM (inactive)
22,CC(=O)Oc1c2c(c(CC=C(C)C)c3c1C(=O)C1=C[C@@H]4CC5C(C)(C)OC(C/C=C(\C)C(=O)O)(C4=O)[C@@]15O3)OC(C)(CCC=C(C)C)C=C2 (stereo partly specified),> 4 mM (inactive)
23,CC(C)=CC1C(CO)C1(C)C (stereo unspecified),> 4 mM (inactive)
24,COC(=O)C[C@@H]1C2(C)C(=O)[C@@H](CC3C2CC[C@]2(C)C3CC(=O)O[C@H]2c2ccoc2)[C@H](OC(C)=O)C1(C)C (stereo partly specified),> 4 mM (inactive)

row,SMILES,Kd
1,O=C(CSc1ccc2ccccc2c1)N1CCOCC1,0.18 mM
2,CN(C)c1ccc2c(=O)[nH][nH]c(=O)c2c1,> 4 mM (inactive)
3,CC1SC(=NC(=O)c2ccncc2)NC1=O (stereo unspecified),> 4 mM (inactive)
4,COc1c(-c2coc3cc4c(cc3c2=O)CC(O)C(C)(C)O4)ccc2c1C=CC(C)(C)O2 (stereo unspecified),> 4 mM (inactive)
5,CC(C)CC(=O)NC1CCSC1=O (stereo unspecified),> 4 mM (inactive)
6,COc1ccc(S(=O)(=O)N2CCOCC2)cc1C(C)C,> 4 mM (inactive)
7,Oc1cnc2ccccc2c1CN1CCOCC1,> 4 mM (inactive)
8,O=C1c2ccccc2C(=O)N1/N=C/c1ccc[nH]1,> 4 mM (inactive)
9,CN1C(=O)C2C=CC1C1C(=O)N(c3ccccc3)C(=O)C21 (stereo unspecified),> 4 mM (inactive)
10,Cc1cc(C)n2nc(SCC(=O)c3ccccc3)nc2n1,> 4 mM (inactive)
11,CO[C@H]1[C@@H](O)[C@@H](C)O[C@H](O[C@H]2CCC3(C)C4CCC5(C)[C@@H](C6=CC(=O)OC6)CC[C@]5(O)[C@@H]4CC[C@]3(O)C2)[C@@H]1O (stereo partly specified),> 4 mM (inactive)
12,O=CN1CCN(C(=O)c2ccc(F)cc2)CC1,> 4 mM (inactive)
13,COc1cc2ccc(=O)oc2c(OC)c1OC,> 4 mM (inactive)
14,O=C(Nc1ccccc1F)c1ccncc1,> 4 mM (inactive)
15,CC1=CC(C)C(C(=O)O)C(C(=O)N2CCN(C)CC2)C1 (stereo unspecified),> 4 mM (inactive)
16,Cc1cc(C)n(-c2ccc(Cl)nn2)n1,> 4 mM (inactive)
17,O=C(Nn1cnnc1)c1cc2c(s1)CCCC2,> 4 mM (inactive)
18,COc1cccc2onc(N)c12,> 4 mM (inactive)
19,Cc1cc(O)c(NC(=O)c2ccco2)cc1C,> 4 mM (inactive)
20,O=C1C2CC=CCC2C(=O)N1c1ccccc1O (stereo unspecified),> 4 mM (inactive)
